Assay results from US20260258084A1, “New Peptides as Selective IL-23 Receptor Antagonists” (Sanofi, priority 2022, published 2026).
Starred links: 1 amine or outer side, 2 acyl side, 3 side chain; linkers in the order of their positions; H or OH if unused. Positions of bridges follow the written chain, without caps; N, C: chain ends. Non-standard residues stand in square brackets, D forms with d. Residues, ends and D or L forms follow the SMILES beside them. *: point of attachment. X3 = CN(CCCCC(=O)N[C@@H](CS[*:2])C(=O)[*:1])[*:3]; Trp(7-Me) = Cc1cccc2c(C[C@H](N)C(=O)O)c[nH]c12; 2Nal = N[C@@H](Cc1ccc2ccccc2c1)C(=O)O; AEF = NCCOc1ccc(C[C@H](N)C(=O)O)cc1; αMeL = CC(C)C[C@](C)(N)C(=O)O; Thp = NC1(C(=O)O)CCOCC1; Me2NCH2CH2 = CN(C)CC*; Aib = CC(C)(N)C(=O)O; Ahx = NCCCCCC(=O)O; Ava = NCCCCC(=O)O; βAla = NCCC(=O)O; Sar = CNCC(=O)O

Columns and labels:
[1] = system: IL-23 induced STAT3 signaling in HEK-Blue™ IL-23 cells; test: IL-23 induced STAT3 signaling in HEK-Blue IL-23 cells (SEAP reporter); format: cell-based; conditions: human IL23 0.25 ng/ml, read-out: pSTAT3
Procedure, shortened: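 Secreted SEAP, read at OD 620-655 nm after 45 min QUANTI-Blue development, reports STAT3 activation. Beforehand, cells were exposed to peptide dilutions for 60 min at 37 °C and then to 0.25 ng/ml final human IL-23 overnight, at 10,000 cells/well.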

Pancreatin = test: Protease stability in simulated intestinal fluid (Pancreatin-SIF, FaSSIF); format: in vitro ADME; conditions: 1 μM peptide, 37° C.; for remaining at 1 h, 1 µM: 60 min, read-out: FaSSIF 60 (min), remaining percent of peptide; for remaining at 2 h, 1 µM: 120 min, read-out: FaSSIF 120 (min), remaining percent of peptide; for remaining at 4 h, 1 µM: 240 min, read-out: FaSSIF 240 (min), remaining percent of peptide
Procedure, shortened: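 LC-MS/MS peak areas at 0, 60, 120 and 240 min, normalised to time 0 as 100%, give percent remaining. Reactions used 1 μM final peptide at 37° C in pancreatin-SIF (1 mg pancreatin in 10 mL SIF concentrate) and were stopped with ethanol containing 0.1% HCOOH.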

Pepsin = system: T1, Pepsin; test: Protease stability in simulated gastric fluid (Pepsin-SGF, FaSSGF); format: in vitro ADME; conditions: simulated gastric fluid with pepsin (Pepsin-SGF), 60 min, 1 μM peptide, 37° C., read-out: FaSSGF 60 (min), remaining percent of peptide
T1 construct: purchased Merck Millipore
Procedure, shortened: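 LCMS/MS peak areas, normalised to the time-0 sample as 100%, give percent remaining. Conditions: 37° C incubation of 1 μM final peptide in simulated gastric fluid with pepsin; ethanol/0.1% HCOOH quench at 0, 60, 120, 240 min.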

[2] = biological target: T2, human interleukin-23 receptor (recombinant human IL-23R-Fc chimera) (Homo sapiens, UniProt Q5VWK5); test: Human ELISA IL23/IL23R (assay for specific human IL23R antagonists); format: binding; conditions: Table 10; read-out: Human ELISA IL23/IL23R IC50
T2 construct: Fc (IgG Fc fusion)
Procedure, shortened: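 Competition format: peptide dilutions compete for IL23R-Fc chimera (0.1 μg/ml final, 60 min, room temperature) binding to immobilized human IL23 coated at […] overnight at 4 °C. Read-out is fluorogenic HRP signal from goat anti-hu-IgG1 detecting captured receptor.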

[3] = Chemical stability assessment of peptides (relative purity loss); format: physicochemical; conditions: 24 hours at 37° C.; for Chemical stability (relative purity loss) Buffer pH 1.2: 50 mM HCl pH 1.2 + acetonitrile (1:1); for Chemical stability (relative purity loss) Buffer pH 6.5: 50 mM phosphate buffer pH 6.5 + acetonitrile (1:1); for Chemical stability (relative purity loss) Buffer pH 7.4: 50 mM phosphate buffer pH 7.4 + acetonitrile (1:1)
Procedure, shortened: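 Peptide solutions at 1 mg/ml (purity-corrected) in 1:1 acetonitrile with 50 mM HCl pH 1.2, or 50 mM phosphate pH 6.5 or pH 7.4, held 24 hours at 2° C. and 37° C. Supernatants analysed by UHPLC-UV; relative purity loss taken as percent drop in peak-area purity from 0 to 24 hours at 37° C.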

| Compound | IC50 [1] | remaining at 1 h, 1 µM (Pancreatin) | remaining at 2 h, 1 µM (Pancreatin) | remaining at 4 h, 1 µM (Pancreatin) | remaining at 1 h, 1 µM (Pepsin) | IC50 [2] | Chemical stability (relative purity loss) Buffer pH 1.2 [3] | Chemical stability (relative purity loss) Buffer pH 6.5 [3] | Chemical stability (relative purity loss) Buffer pH 7.4 [3] |
| --- | --- | --- | --- | --- | --- | --- | --- | --- | --- |
| C[C@@H](O)[C@@H]1NC(=O)[C@H](CC(N)=O)NC(=O)[C@@H]2CSSC[C@H](NC(=O)[C@H](CCC(N)=O)NC(=O)[C@H](Cc3c[nH]c4ccccc34)NC1=O)C(=O)N[C@@H](Cc1ccc(OCCN)cc1)C(=O)N[C@@H](Cc1ccc3ccccc3c1)C(=O)NC(C)(C)C(=O)N[C@H](C(=O)N[C@@H](CC(N)=O)C(=O)NCC(N)=O)CC(=O)NCCCCCC(=O)N2 [compound 9] ([Ahx]CNTWQC[AEF][2Nal][Aib]DNG-NH2; disulfide 2-7; lactam N-11) | 65 nM | 102% | 100% | 85% | 2% | 0.44 nM | 13.8% | 5.5% | 19.8% |
| CC(=O)NCCCC[C@@H]1NC(=O)[C@H](Cc2c[nH]c3c(C)cccc23)NC(=O)[C@H]([C@@H](C)O)NC(=O)[C@H](CC(N)=O)NC(=O)[C@@H]2CSSC[C@H](NC1=O)C(=O)N[C@@H](Cc1ccc(OCCN(C)C)cc1)C(=O)N[C@@H](Cc1ccc3ccccc3c1)C(=O)NC1(CCOCC1)C(=O)N[C@H](C(=O)N[C@@H](CC(N)=O)C(=O)N[C@@H](Cc1c[nH]cn1)C(=O)NCCC(N)=O)CCC(=O)NCCCCC(=O)N2 [compound 49] ([Ava]CNT[Trp(7-Me)]K(Ac)CY(Me2NCH2CH2)[2Nal][Thp]ENH[βAla]-NH2; disulfide 2-7; lactam N-11) | 1.79 nM | 85% | 75% | 74% | 100% | 0.33 nM | 11.6% | 1.2% | 1.4% |
| CC(=O)N[C@H]1CCCCNC(=O)[C@@H]2CSSC[C@H](NC(=O)[C@H](CCC(N)=O)NC(=O)[C@H](Cc3c[nH]c4ccccc34)NC1=O)C(=O)N[C@@H](Cc1ccc(OCCN)cc1)C(=O)N[C@@H](Cc1ccc3ccccc3c1)C(=O)NC1(CCOCC1)C(=O)N[C@H](C(=O)N[C@@H](C)C(=O)NCC(N)=O)CCC(=O)N(C)CCCCC(=O)N2 [compound 17] (Ac-KWQC[AEF][2Nal][Thp]EAG-NH2; linker 1-4-8 via X3) | 62 nM | 81% | 75% | 64% | 71% | 0.28 nM | 5.6% | 0.0% | 0.0% |
| COc1ccc(C[C@@H]2NC(=O)[C@@H]3CSSC[C@H](NC(=O)CCC(=O)NCCCC[C@@H](C(=O)N[C@@H](CC(N)=O)C(=O)N[C@@H](CC(N)=O)C(N)=O)NC(=O)C(C)(C)NC(=O)[C@H](Cc4ccc5ccccc5c4)NC2=O)C(=O)N[C@@H](CC(N)=O)C(=O)N[C@@H]([C@@H](C)O)C(=O)N[C@@H](Cc2c[nH]c4ccccc24)C(=O)N[C@@H](CCC(N)=O)C(=O)N3)cc1 [compound 11] | 53.5 nM | 80% | 76% | 65% | 2% | 0.7 nM | 25.7% | 0.2% | 1.0% |
| CC(=O)NCCCC[C@@H]1NC(=O)[C@H](Cc2c[nH]c3c(C)cccc23)NC(=O)[C@H]([C@@H](C)O)NC(=O)[C@H](CC(N)=O)NC(=O)[C@@H]2CSSC[C@H](NC1=O)C(=O)N[C@@H](Cc1ccc(OCCN(C)C)cc1)C(=O)N[C@@H](Cc1ccc3ccccc3c1)C(=O)NC(C)(C)C(=O)N[C@H](C(=O)N[C@@H](CC(N)=O)C(=O)N[C@@H](Cc1c[nH]cn1)C(=O)N(C)CC(N)=O)CCC(=O)NCCCCC(=O)N2 [compound 45] ([Ava]CNT[Trp(7-Me)]K(Ac)CY(Me2NCH2CH2)[2Nal][Aib]ENH[Sar]-NH2; disulfide 2-7; lactam N-11) | 0.67 nM | 82% | 83% | 74% | 100% | 0.32 nM | 15.7% | 0.0% | 2.3% |
| CC(=O)N[C@H]1CCCCNC(=O)[C@@H]2CSSC[C@H](NC(=O)[C@H](CCC(N)=O)NC(=O)[C@H](Cc3c[nH]c4ccccc34)NC1=O)C(=O)N[C@@H](Cc1ccc(OCCN)cc1)C(=O)N[C@@H](Cc1ccc3ccccc3c1)C(=O)NC(C)(C)C(=O)N[C@H](C(=O)N[C@@H](CC(N)=O)C(=O)N[C@@H](CC(N)=O)C(N)=O)CCC(=O)N(C)CCCCC(=O)N2 [compound 12] (Ac-KWQC[AEF][2Nal][Aib]ENN-NH2; linker 1-4-8 via X3) | 27.9 nM | 74% | 59% | 41% | 53% | 0.59 nM | 24.5% | 1.1% | 3.6% |
| CC(=O)N[C@H]1CCCCNC(=O)[C@@H]2CSSC[C@H](NC(=O)[C@H](CCC(N)=O)NC(=O)[C@H](Cc3c[nH]c4ccccc34)NC1=O)C(=O)N[C@@H](Cc1ccc(OCCN)cc1)C(=O)N[C@@H](Cc1ccc3ccccc3c1)C(=O)NC(C)(C)C(=O)N[C@H](C(=O)N[C@@H](C)C(=O)N[C@H](CC(C)C)C(N)=O)CCC(=O)N(C)CCCCC(=O)N2 [compound 19] (Ac-KWQC[AEF][2Nal][Aib]EA[dL]-NH2; linker 1-4-8 via X3) | 88.3 nM | 92% | 81% | 76% | 79% | 0.74 nM | 7.9% | 0.0% | 0.0% |
| CC(=O)NCCCC[C@@H]1NC(=O)[C@H](Cc2c[nH]c3c(C)cccc23)NC(=O)[C@H]([C@@H](C)O)NC(=O)[C@H](CC(N)=O)NC(=O)[C@@H]2CSSC[C@H](NC1=O)C(=O)N[C@@H](Cc1ccc(OCCN(C)C)cc1)C(=O)N[C@@H](Cc1ccc3ccccc3c1)C(=O)N[C@@](C)(CC(C)C)C(=O)N[C@H](C(=O)N[C@@H](CC(N)=O)C(=O)N[C@@H](Cc1c[nH]cn1)C(=O)NCCC(N)=O)CCC(=O)NCCCCC(=O)N2 [compound 50] ([Ava]CNT[Trp(7-Me)]K(Ac)CY(Me2NCH2CH2)[2Nal][αMeL]ENH[βAla]-NH2; disulfide 2-7; lactam N-11) | 0.98 nM | 95% | 85% | 85% | 99% | 0.29 nM | 13.0% | 0.7% | 1.5% |
| CC(=O)N[C@H]1CCCCNC(=O)[C@@H]2CSSC[C@H](NC(=O)[C@H](CCC(N)=O)NC(=O)[C@H](Cc3c[nH]c4ccccc34)NC1=O)C(=O)N[C@@H](Cc1ccc(OCCN)cc1)C(=O)N[C@@H](Cc1ccc3ccccc3c1)C(=O)N[C@@](C)(CC(C)C)C(=O)N[C@H](C(=O)N[C@@H](C)C(=O)N[C@H](CC(C)C)C(N)=O)CCC(=O)N(C)CCCCC(=O)N2 [compound 44] (Ac-KWQC[AEF][2Nal][αMeL]EA[dL]-NH2; linker 1-4-8 via X3) | 42.5 nM | 64% | 61% | 59% | 88% | 1.16 nM | 4.1% | 0.1% | 0.2% |
